Patent US9796711B2, “Substituted pyrazolo[3,4-b]pyridin-6-carboxylic acids and method of use” (AbbVie S.àr.l., priority 2015, dated 2017)
pEC50: −log10 of the molar value. Like-named read-outs stand apart in the source and are kept apart here.

Target: T1, CFTR ΔF508 (Homo sapiens, UniProt P13569, DEL508-508)
T1 construct: bronchial epithelial cells isolated from CF patients homozygous for the CFTR ΔF508 mutation; McGill University; Asterand; University of North Carolina hAEC-CF; host or cells: primary human bronchial epithelial cells from CF patients homozygous for ΔF508
Assay: Chronic TECC assay on primary bronchial epithelial cells (corrector, co-corrector and potentiator)
Assay type: cell-based
Method: Primary Bronchial Epithelial Cells Protocol
The TECC (Tranepithelial Clamp Circuit, EP-design) assay measures the functionality of the cystic fibrosis Transmembrane Conductance regulator (CFTR) by measuring the short circuit current (Isc) generated over the basolateral and apical membrane of lung epithelial cells. In TECC the transepithelial potential PD and transepithelial resistance (Rt)) are measured in an open circuit and transformed to Ieq using Ohm's law. 24 Wells can be measured simultaneously allowing a higher throughput compared to Ussing chambers.
For this purpose, bronchial epithelial cells isolated from CF patients homozygous for the CFTR ΔF508 mutation (hAEC-CF, Epithelix, Geneva, Switzerland; McGill University, Montreal, Qc; Asterand, Detroit, Mich.; University of North Carolina, Chapel Hill, N.C.) are plated on type IV collagen-coated Transwell® supports (Costar). Human airway epithelia are generated by provision of an air-liquid interface for 21 days to form well-differentiated polarized cultures that resemble in vivo pseudo-stratified ciliated epithelium (Fulcher, M. L., Gabriel, S., Burns, K. A., Yankaskas, J. R., Randell, S. H., 2005. Well-differentiated human airway epithelial cell cultures. Methods Mol. Med. 107, 183-206). The differentiated cells are treated with test corrector compound(s) (corrector alone or in combination with co-corrector, 4-[(2R,4R)-4-({[1-(2,2-difluoro-1,3-benzodioxol-5-yl)cyclopropyl]carbonyl}amino)-7-methoxy-3,4-dihydro-2H-chromen-2-yl]benzoic acid (G924806/A-1618261) (“acute”) or test corrector compounds, co-corrector and potentiator, N-(3-carbamoyl-5,5,7,7-tetramethyl-4,7-dihydro-5H-thieno[2,3-c]pyran-2-yl)-1H-pyrazole-5-carboxamide GLPG1837, (“chronic”) for 24 hours basolaterally to allow sufficient expression of properly folded CFTR protein on the membrane. All compound plates contained negative controls (DMSO) and positive controls (0.15 μM, 4-[(2R,4R)-4-({[1-(2,2-difluoro-1,3-benzodioxol-5-yl)cyclopropyl]carbonyl}amino)-7-(difluoromethoxy)-3,4-dihydro-2H-chromen-2-yl]benzoic acid).
For electrophysiological recording of the “chronic” experiments, the human airway epithelia are mounted in the TECC heating plate for electrophysiological measurement and kept at 37° C. The epithelia are bathed in a NaCl-Ringer solution (120 mM NaCl, 25 mM NaHCO3, 1.2 mM CaCl2, 1.2 mM MgCl2, 0.8 mM KH2PO4, 0.8 mM K2HPO4, pH 7.4, 5 mM glucose) on both the basolateral and apical sides. Test compounds (corrector, co-corrector, 4-[(2R,4R)-4-({[1-(2,2-difluoro-1,3-benzodioxol-5-yl)cyclopropyl]carbonyl}amino)-7-(difluoromethoxy)-3,4-dihydro-2H-chromen-2-yl]benzoic acid, and potentiator, N-(3-carbamoyl-5,5,7,7-tetramethyl-4,7-dihydro-5H-thieno[2,3-c]pyran-2-yl)-1H-pyrazole-5-carboxamide), are re-added to the recording solution prior to measurement. Apical amiloride is used to inhibit the endogenous ENaC currents while forskolin is applied on both apical and basolateral side to stimulate CFTR. Measurements are done during a 20 minute timeframe with recordings every 2 minutes. The increase in Ieq is used as a measure for the increased CFTR activity, EC50 values can be generated by measuring impact of different concentrations of compound on Ieq on primary cells, for this purpose each transwell is treated with a different compound concentration. Inhibitor-172, an inhibitor specific for CFTR, is used to test the specificity of the tested compounds. Raw data were normalized to percentage activity values using the equation: 100×(Sample−Negative control)/(Positive control−Negative Control).

[1] = chronic TECC, AUC = full area under the curve upon forskolin stimulation, with co-corrector and potentiator, 24 hours
[2] = chronic TECC, Ieq = calculations based on the maximum current, with co-corrector and potentiator, 24 hours
[3] = chronic TECC, Ieq = calculations based on the maximum current, with co-corrector and potentiator, 24 hours, read-out: EC50 (nM) (Ieq)
[4] = chronic TECC, AUC = full area under the curve upon forskolin stimulation, with co-corrector and potentiator, 24 hours, read-out: EC50 (nM) (AUC)

T1 sequence (P13569 with tags, fused parts or gaps DEL508-508): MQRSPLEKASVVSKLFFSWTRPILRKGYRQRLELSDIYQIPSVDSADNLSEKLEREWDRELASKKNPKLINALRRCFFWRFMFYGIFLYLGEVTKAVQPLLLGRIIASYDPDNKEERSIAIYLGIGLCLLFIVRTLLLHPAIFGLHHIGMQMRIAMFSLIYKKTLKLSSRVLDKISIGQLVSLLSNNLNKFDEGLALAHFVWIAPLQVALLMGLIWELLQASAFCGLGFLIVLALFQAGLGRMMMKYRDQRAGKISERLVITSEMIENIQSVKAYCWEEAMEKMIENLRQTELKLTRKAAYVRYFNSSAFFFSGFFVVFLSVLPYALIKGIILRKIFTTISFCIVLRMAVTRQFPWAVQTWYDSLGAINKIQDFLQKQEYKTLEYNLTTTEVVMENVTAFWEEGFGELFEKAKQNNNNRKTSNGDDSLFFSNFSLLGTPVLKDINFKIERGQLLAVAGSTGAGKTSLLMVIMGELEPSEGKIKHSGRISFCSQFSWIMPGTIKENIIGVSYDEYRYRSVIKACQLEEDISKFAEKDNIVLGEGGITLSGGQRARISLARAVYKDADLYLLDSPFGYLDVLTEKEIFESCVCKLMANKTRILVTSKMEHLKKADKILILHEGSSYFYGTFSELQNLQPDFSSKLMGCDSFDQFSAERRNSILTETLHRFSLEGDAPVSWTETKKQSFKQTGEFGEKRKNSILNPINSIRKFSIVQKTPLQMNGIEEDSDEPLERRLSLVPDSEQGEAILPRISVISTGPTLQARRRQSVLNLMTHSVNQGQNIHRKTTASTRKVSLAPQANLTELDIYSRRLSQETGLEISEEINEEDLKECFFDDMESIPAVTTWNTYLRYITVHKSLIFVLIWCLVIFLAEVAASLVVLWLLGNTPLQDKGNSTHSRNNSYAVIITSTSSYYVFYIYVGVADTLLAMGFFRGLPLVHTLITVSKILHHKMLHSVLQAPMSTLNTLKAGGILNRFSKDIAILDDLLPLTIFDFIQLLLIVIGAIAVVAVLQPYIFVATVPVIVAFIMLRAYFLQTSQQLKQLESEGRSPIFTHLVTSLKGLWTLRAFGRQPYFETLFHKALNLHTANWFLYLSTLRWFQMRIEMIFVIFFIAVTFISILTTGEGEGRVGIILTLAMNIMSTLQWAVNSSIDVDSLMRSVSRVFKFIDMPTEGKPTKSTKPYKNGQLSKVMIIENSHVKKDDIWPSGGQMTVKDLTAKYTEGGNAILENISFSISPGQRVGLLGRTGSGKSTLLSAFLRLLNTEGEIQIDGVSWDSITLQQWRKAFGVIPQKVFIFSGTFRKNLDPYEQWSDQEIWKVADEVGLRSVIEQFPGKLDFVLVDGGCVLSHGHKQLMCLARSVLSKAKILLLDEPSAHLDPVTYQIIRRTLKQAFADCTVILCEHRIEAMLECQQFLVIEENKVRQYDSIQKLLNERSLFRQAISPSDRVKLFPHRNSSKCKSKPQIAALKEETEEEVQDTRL

Row | Structure (SMILES) | % Activity at 1 μM (AUC**) [1] | % Activity at 1 μM (Ieq*) [2] | EC50 [3] | other results
1 | CC(C)OC(=O)N1CC[C@@H]2CN(c3cc(C(=O)O)nc4c3c(C3CCC3)nn4-c3ccccc3)CC[C@@H]21 (racemic) [compound 610, rac-3-cyclobutyl-1-phenyl-4-[(3aR,7aS)-1-{[(propan-2-yl)oxy]carbonyl}octahydro-5H-pyrrolo[3,2-c]pyridin-5-yl]-1H-pyrazolo[3,4-b]pyridine-6-carboxylic acid] | 471% |  |  | 
2 | Cc1cccc(-n2nc(C(C)C)c3c(N4CCC(C#N)CC4)cc(C(=O)O)nc32)c1 [compound 191, 4-(4-cyanopiperidin-1-yl)-1-(3-methylphenyl)-3-(propan-2-yl)-1H-pyrazolo[3,4-b]pyridine-6-carboxylic acid] |  | 220% | 50 nM | 
3 | COC1CCN(c2cc(C(=O)O)nc3c2c(C(C)C)nn3-c2cccc(C)c2)CC1 [compound 192, 4-(4-methoxypiperidin-1-yl)-1-(3-methylphenyl)-3-(propan-2-yl)-1H-pyrazolo[3,4-b]pyridine-6-carboxylic acid] |  | 235% | < 30 nM | 
4 | CC(C)c1nn(-c2ccnc(N3CCOCC3)c2)c2nc(C(=O)O)cc(-c3ccc(N4CCOCC4)cc3)c12 [compound 201, 4-[4-(morpholin-4-yl)phenyl]-1-[2-(morpholin-4-yl)pyridin-4-yl]-3-(propan-2-yl)-1H-pyrazolo[3,4-b]pyridine-6-carboxylic acid] | 254% |  |  | EC50 [4]: < 30 nM
5 | CC(C)c1nn(-c2cccc(N3CCOCC3)c2)c2nc(C(=O)O)cc(-c3cnc(N4CCC(C#N)CC4)nc3)c12 [compound 204, 4-[2-(4-cyanopiperidin-1-yl)pyrimidin-5-yl]-1-[3-(morpholin-4-yl)phenyl]-3-(propan-2-yl)-1H-pyrazolo[3,4-b]pyridine-6-carboxylic acid] |  | 241% | < 30 nM | 
6 | CO[C@H]1CCC[C@@H](n2nc(C(C)C)c3c(-c4ccc(N5CCOCC5)cc4)cc(C(=O)O)nc32)C1 [compound 205, 1-[(1R,3S)-3-methoxycyclohexyl]-4-[4-(morpholin-4-yl)phenyl]-3-(propan-2-yl)-1H-pyrazolo[3,4-b]pyridine-6-carboxylic acid] |  | 140% | > 1000 nM | 
7 | COCC1CCN(c2cc(C(=O)O)nc3c2c(C(C)C)nn3-c2cccc(C)c2)CC1 [compound 227, 4-[4-(methoxymethyl)piperidin-1-yl]-1-(3-methylphenyl)-3-(propan-2-yl)-1H-pyrazolo[3,4-b]pyridine-6-carboxylic acid] |  | 300% | 30 nM | 
8 | COCCC1CCN(c2cc(C(=O)O)nc3c2c(C(C)C)nn3-c2cccc(C)c2)CC1 [compound 228, 4-[4-(2-methoxyethyl)piperidin-1-yl]-1-(3-methylphenyl)-3-(propan-2-yl)-1H-pyrazolo[3,4-b]pyridine-6-carboxylic acid] |  | 280% | < 30 nM | 
9 | CC(C)c1nn(-c2cccc(N3CCOCC3)n2)c2nc(C(=O)O)cc(-c3ccc(N4CCOCC4)cc3)c12 [compound 244, 4-[4-(morpholin-4-yl)phenyl]-1-[6-(morpholin-4-yl)pyridin-2-yl]-3-(propan-2-yl)-1H-pyrazolo[3,4-b]pyridine-6-carboxylic acid] |  | 210% | < 30 nM | 
10 | CC(C)c1nn(-c2cc(F)cc(F)c2)c2nc(C(=O)O)cc(-c3ccc(N4CCOCC4)cc3)c12 [compound 268, 1-(3,5-difluorophenyl)-4-[4-(morpholin-4-yl)phenyl]-3-(propan-2-yl)-1H-pyrazolo[3,4-b]pyridine-6-carboxylic acid] |  | 267% | 25 nM | 
11 | CN(C)C[C@@H](F)C1CCN(c2cc(C(=O)O)nc3c2c(C2CCC2)nn3-c2ccccc2)CC1 [compound 456, 3-cyclobutyl-4-{4-[(1S)-2-(dimethylamino)-1-fluoroethyl]piperidin-1-yl}-1-phenyl-1H-pyrazolo[3,4-b]pyridine-6-carboxylic acid] |  |  |  | EC50 [4]: 120 nM
12 | CCOC(=O)N1CCN(c2cc(C(=O)O)nc3c2c(C2CCC2)nn3-c2ccccc2)CC1 [compound 539, 3-cyclobutyl-4-[4-(ethoxycarbonyl)piperazin-1-yl]-1-phenyl-1H-pyrazolo[3,4-b]pyridine-6-carboxylic acid] | 557% |  |  | 
13 | O=C(O)c1cc(N2CCC(CN3CCCC3)CC2)c2c(C3CCC3)nn(-c3ccccc3)c2n1 [compound 557, 3-cyclobutyl-1-phenyl-4-{4-[(pyrrolidin-1-yl)methyl]piperidin-1-yl}-1H-pyrazolo[3,4-b]pyridine-6-carboxylic acid] | 262% |  |  | % Activity at 3 μM (AUC) (chronic TECC, 3 μM, AUC = full area under the curve upon forskolin stimulation, with co-corrector and potentiator, 24 hours): 384%
14 | O=C(O)c1cc(N2CCC(N3CCOCC3)CC2)c2c(C3CCC3)nn(-c3ccccc3)c2n1 [compound 560, 3-cyclobutyl-4-[4-(morpholin-4-yl)piperidin-1-yl]-1-phenyl-1H-pyrazolo[3,4-b]pyridine-6-carboxylic acid] |  |  |  | pEC50: > 7.52
15 | O=C(O)c1cc(N2CCC(CCN3CCCC3)CC2)c2c(C3CCC3)nn(-c3ccccc3)c2n1 [compound 574, 3-cyclobutyl-1-phenyl-4-{4-[2-(pyrrolidin-1-yl)ethyl]piperidin-1-yl}-1H-pyrazolo[3,4-b]pyridine-6-carboxylic acid] | 190% |  |  | 
16 | O=C(O)c1cc(N2CCC(CCN3CCOCC3)CC2)c2c(C3CCC3)nn(-c3ccccc3)c2n1 [compound 575, 3-cyclobutyl-4-{4-[2-(morpholin-4-yl)ethyl]piperidin-1-yl}-1-phenyl-1H-pyrazolo[3,4-b]pyridine-6-carboxylic acid] | 290% |  |  | pEC50: 7.00
17 | O=C(O)c1cc(N2CCC(N3CCCCC3)CC2)c2c(C3CCC3)nn(-c3ccccc3)c2n1 [compound 576, 4-([1,4′-bipiperidin]-1′-yl)-3-cyclobutyl-1-phenyl-1H-pyrazolo[3,4-b]pyridine-6-carboxylic acid] | 183% |  |  | 
18 | CC(C)c1nn(-c2ccc(F)cc2)c2nc(C(=O)O)cc(N3CCC(C(C)(C)O)CC3)c12 [compound 656, 1-(4-fluorophenyl)-4-[4-(2-hydroxypropan-2-yl)piperidin-1-yl]-3-(propan-2-yl)-1H-pyrazolo[3,4-b]pyridine-6-carboxylic acid] |  |  |  | EC50 [4]: 48 nM
19 | O=C(O)c1cc(N2CCC(N3CCOCC3)CC2)c2c(C3CCC3)nn(-c3ccc(F)cc3)c2n1 [compound 679, 3-cyclobutyl-1-(4-fluorophenyl)-4-[4-(morpholin-4-yl)piperidin-1-yl]-1H-pyrazolo[3,4-b]pyridine-6-carboxylic acid] | 373.3333% |  |  | EC50 [4]: 28 nM
20 | CC(C1CCN(c2cc(C(=O)O)nc3c2c(C2CCC2)nn3-c2ccccc2)CC1)N1CCOCC1 (stereo not shown) [compound 683, 3-cyclobutyl-4-{4-[1-(morpholin-4-yl)ethyl]piperidin-1-yl}-1-phenyl-1H-pyrazolo[3,4-b]pyridine-6-carboxylic acid] | 196.675% |  |  | 
21 | CC1CCN(CCC2CCN(c3cc(C(=O)O)nc4c3c(C3CCC3)nn4-c3ccccc3)CC2)CC1 [compound 687, 3-cyclobutyl-4-{4-[2-(4-methylpiperidin-1-yl)ethyl]piperidin-1-yl}-1-phenyl-1H-pyrazolo[3,4-b]pyridine-6-carboxylic acid] | 263.3333% |  |  | EC50 [4]: 53.5 nM
